Experimental data from ChEMBL document CHEMBL1156760, “Synthesis and biological evaluation of new nanomolar competitive inhibitors of Helicobacter pylori type II dehydroquinase. Structural details of the role of the aromatic moieties with essential residues” (J Med Chem, 2010).

Target: T1, 3-dehydroquinate dehydratase (Helicobacter pylori (strain ATCC 700392 / 26695) (Campylobacterpylori), UniProt Q48255)
T1 sequence (Q48255 whole entry): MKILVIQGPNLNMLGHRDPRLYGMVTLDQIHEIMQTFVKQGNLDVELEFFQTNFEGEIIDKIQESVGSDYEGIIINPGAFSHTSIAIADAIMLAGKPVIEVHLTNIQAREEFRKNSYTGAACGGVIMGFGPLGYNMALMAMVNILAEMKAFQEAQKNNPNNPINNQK
Test: Inhibition of Helicobacter pylori DHQ2 by UV spectroscopy

Ki: 132 nM
Compound: O=C(O)[C@]1(O)C=C(OCc2cc3ccccc3s2)[C@@H](O)[C@H](O)C1
